Measurements taken from ChEMBL document CHEMBL5154694, “Fascaplysin derivatives binding to DNA via unique cationic five-ring coplanar backbone showed potent antimicrobial/antibiofilm activity against MRSA in vitro and in vivo” (Eur J Med Chem, 2022).
Calls of active or inactive are those of the source. The rule behind the calls is not given here.

Legend:
[1] = tested on: Staphylococcus aureus; assay: Antibacterial activity against methicillin-resistant Staphylococcus aureus ATCC 4330 after 16 to 18 hrs by microbroth dilution method; format: functional; conditions: time 16-18 hrs
[2] = tested on: Staphylococcus aureus; assay: Antimicrobial activity against methicillin-resistant Staphylococcus aureus ATCC 4330 infected in female ICR peritonitis mouse model assessed as reduction in bacteria in blood at 10 mg/kg, ip; format: functional
[3] = tested on: DNA; assay: Inhibition of methicillin-resistant Staphylococcus aureus ATCC 4330 genomic DNA migration at 3.125 to 6.25 ug/ml measured by electrophoretic mobility assay; format: nucleic-acid assay; conditions: dose 3.125-6.25 µg/ml
[4] = Toxicity in female ICR peritonitis mouse model infected with methicillin-resistant Staphylococcus aureus ATCC 4330 assessed as kidney damage at 10 mg/kg, ip; format: organism-based; conditions: in vivo
[5] = tested on: Staphylococcus aureus; assay: Antimicrobial activity against methicillin-resistant Staphylococcus aureus ATCC 4330 infected in female ICR peritonitis mouse model assessed as survival time of mouse at 10 mg/kg, ip; format: functional
[6] = tested on: Staphylococcus aureus; assay: Bactericidal activity against methicillin-resistant Staphylococcus aureus ATCC 4330 assessed as inhibition of bacterial regrowth at 2X MIC after 24 hrs by time-kill kinetic assay; format: functional, organism-based
[7] = tested on: Staphylococcus aureus; assay: Bactericidal activity against methicillin-resistant Staphylococcus aureus ATCC 4330 assessed as reduction in bacterial counts at 2X MIC within 0.5 hrs by time-kill kinetic assay; format: functional
[8] = tested on: Staphylococcus aureus; assay: Induction of membrane morphological changes in methicillin-resistant Staphylococcus aureus ATCC 4330 assessed as visible cell wall fragments at 4X MIC after 2 hrs by transmission electron microscopy; format: functional
[9] = tested on: Staphylococcus aureus; assay: Induction of membrane morphological changes in methicillin-resistant Staphylococcus aureus ATCC 4330 assessed as visible cell filaments at 4X MIC after 2 hrs by scanning electron microscopy; format: functional
[10] = tested on: Staphylococcus aureus; assay: Bactericidal activity against methicillin-resistant Staphylococcus aureus ATCC 4330 assessed as reduction in bacterial counts at 4X MIC by time-kill kinetic assay; format: functional, organism-based
[11] = tested on: Staphylococcus aureus; assay: Induction of membrane morphological changes in methicillin-resistant Staphylococcus aureus ATCC 4330 assessed as visible cell membrane disruption at 4X MIC after 2 hrs by transmission electron microscopy; format: functional
[12] = tested on: Staphylococcus aureus; assay: Antimicrobial activity against methicillin-resistant Staphylococcus aureus ATCC 4330 infected in female ICR peritonitis mouse model assessed as increase in survival rate of mouse at 10 mg/kg, ip; format: functional
[13] = tested on: Staphylococcus aureus; assay: Bactericidal activity against methicillin-resistant Staphylococcus aureus ATCC 4330 assessed as reduction in bacterial counts at 1 to 4X MIC within 24 hrs by time-kill kinetic assay; format: functional
[14] = Toxicity in female ICR peritonitis mouse model infected with methicillin-resistant Staphylococcus aureus ATCC 4330 assessed as liver damage at 10 mg/kg, ip; format: organism-based; conditions: in vivo
[15] = tested on: DNA; assay: Binding affinity to methicillin-resistant Staphylococcus aureus ATCC 4330 DNA assessed as induction of confirmational changes at 50 ug/ml measured by Circular dichroism assay; format: nucleic-acid assay; conditions: dose 50.0 µg/ml
[16] = tested on: Staphylococcus aureus; assay: Induction of membrane morphological changes in methicillin-resistant Staphylococcus aureus ATCC 4330 assessed as visible cell surface wrinkles at 4X MIC after 2 hrs by scanning electron microscopy; format: functional
[17] = tested on: Staphylococcus aureus; assay: Antibiofilm activity against methicillin-resistant Staphylococcus aureus ATCC 4330 assessed as fold change in downregulation of AgrA mRNA expression at 4X MIC after 2 hrs by qRT-PCR assay; format: functional
[18] = tested on: Staphylococcus aureus; assay: Induction of membrane morphological changes in methicillin-resistant Staphylococcus aureus ATCC 4330 assessed as ghost cells at 4X MIC after 2 hrs by transmission electron microscopy; format: functional
[19] = Cytotoxicity against mouse RAW264.7 cells assessed as cell survival at 50 ug/ml incubated for 24 hrs by CCK-8 assay; format: toxicity, cell-based; conditions: at 50 µg/mL, read-out: Activity
[20] = Hemolytic activity in mouse erythrocytes assessed as hemolysis at 12.5 ug/ml relative to control; format: toxicity, cell-based, Erythrocyte; conditions: at 12.5 µg/mL, read-out: Activity
[21] = tested on: Staphylococcus aureus; assay: Antibiofilm activity against methicillin-resistant Staphylococcus aureus ATCC 4330 assessed as inhibition of biofilm formation at 1.56 ug/ml after 24 hrs by crystal violet staining based assay relative to control; format: functional
[22] = tested on: Staphylococcus aureus; assay: Induction of membrane morphological changes in methicillin-resistant Staphylococcus aureus ATCC 4330 assessed as fluorescent intensity at 1 to 4X MIC measured after 30 to 120 mins by propidium iodide staining based flow cytometry assay; format: functional; conditions: time 30-120 min
[23] = Toxicity in female ICR peritonitis mouse model infected with methicillin-resistant Staphylococcus aureus ATCC 4330 assessed as lung damage at 10 mg/kg, ip; format: organism-based; conditions: in vivo
[24] = tested on: Staphylococcus aureus; assay: Induction of membrane morphological changes in methicillin-resistant Staphylococcus aureus ATCC 4330 assessed as permeable cells at 1 to 4X MIC measured after 30 to 120 mins by propidium iodide staining based flow cytometry assay; format: functional; conditions: time 30-120 min
[25] = Cytotoxicity against mouse RAW264.7 cells assessed as cell survival at 12.5 ug/ml incubated for 24 hrs by CCK-8 assay; format: toxicity, cell-based; conditions: at 12.5 µg/mL, read-out: Activity
[26] = tested on: Staphylococcus aureus; assay: Antibiofilm activity against methicillin-resistant Staphylococcus aureus ATCC 4330 assessed as inhibition of biofilm formation at 6.25 ug/ml after 24 hrs by crystal violet staining based assay relative to control; format: functional
[27] = Cytotoxicity against mouse RAW264.7 cells assessed as cell survival at 25 ug/ml incubated for 24 hrs by CCK-8 assay; format: toxicity, cell-based; conditions: at 25 µg/mL, read-out: Activity
[28] = Cmax in rat plasma at 15 mg/kg, IG; format: ADME, organism-based; set-up: dose 15 mg/kg, route ig; conditions: po
[29] = Cmax in rat plasma at 3 mg/kg, iv; format: ADME, organism-based; set-up: dose 3 mg/kg, route iv
[30] = Stability in plasma (unknown origin); format: ADME, cell-free; conditions: unidentified

Q: With `Cc1ccc2[nH]c3c(C(=O)c4ccccc4Br)nccc3c2c1` as the molecule, how does the MIC [1] read?
A: Its MIC is greater than 200 µg/mL.

Q: For `O=C(Nc1cccc2ccccc12)c1ccc2[nH]c3c4[n+](ccc3c2c1)-c1ccccc1C4=O.[Br-]`, which Activity [2] is on record?
A: The Activity was “Active”.

Q: What about the “inhibition of DNA migration” value [3] of the same molecule?
A: The value was “Active”.

Q: And the Activity [4]?
A: Its Activity is “Non-Toxic”.

Q: And the Survival [5]?
A: Its Survival is 2 days.

Q: What about the Activity [6] of the same molecule?
A: The Activity was “Active”.

Q: What about the Activity [7] of the same molecule?
A: Its Activity is 1.9 log10CFU/ml.

Q: What about the Activity [8] of the same molecule?
A: Its Activity is “Active”.

Q: What about the Activity [9] of the same molecule?
A: The Activity was “Active”.

Q: And the Activity [10]?
A: Its Activity is “Active”.

Q: What about the Activity [11] of the same molecule?
A: The Activity was “Active”.

Q: What about the Activity [12] of the same molecule?
A: Its Activity is 20%.

Q: What about the Activity [13] of the same molecule?
A: Its Activity is 2 log10CFU/ml.

Q: And the Activity [14]?
A: Its Activity is “Non-Toxic”.

Q: And the Activity [15]?
A: The Activity was “Active”.

Q: What about the Activity [16] of the same molecule?
A: Its Activity is “Active”.

Q: And the “fold change (FC)” value [17]?
A: Its value is 0.1.

Q: And the Activity [18]?
A: Its Activity is “Active”.

Q: What about the viability at 24 h, 50 ug/ml [19] of the same molecule?
A: Its viability at 24 h, 50 ug/ml is 98.4%.

Q: What about the MIC [1] of the same molecule?
A: Its MIC is 0.098 µg/mL.

Q: And the hemolysis at 12.5 ug/ml [20]?
A: The hemolysis at 12.5 ug/ml was 0%.

Q: What about the inhibition at 1.56 µg/mL [21] of the same molecule?
A: Its inhibition at 1.56 µg/mL is 78.9%.

Q: And the Activity [22]?
A: Its Activity is 19.3%.

Q: What about the Activity [23] of the same molecule?
A: The Activity was “Non-Toxic”.

Q: For `O=C(Nc1cccc2ccccc12)c1ccc2[nH]c3c(C(=O)c4ccccc4Br)nccc3c2c1`, which MIC [1] is on record?
A: The MIC was greater than 200 µg/mL.

Q: Which results are given for `Cc1ccc2[nH]c3c4[n+](ccc3c2c1)-c1ccccc1C4=O`?
A: inhibition of DNA migration [3]: Active; Activity [6]: Active; Activity [8]: Active; Activity [9]: Active; Activity [10]: Active; Activity [11]: Active; Activity [15]: Active; Activity [16]: Active; Activity [24]: 1.11%; Activity [18]: Active

Q: Which results are given for `O=C1c2ccccc2-[n+]2ccc3c([nH]c4ccccc43)c21`?
A: Activity [2]: Active; inhibition of DNA migration [3]: Active; Activity [6]: Active; Activity [8]: Active; Activity [9]: Active; Activity [10]: Active; Activity [11]: Active; Activity [15]: Active; Activity [16]: Active; Activity [24]: 1.11%; Activity [18]: Active

Q: For `O=C(c1ccccc1Br)c1nccc2c1[nH]c1ccc(Br)cc12`, which MIC [1] is on record?
A: Its MIC is greater than 200 µg/mL.

Q: Which results are given for `Cc1ccc2[nH]c3c4[n+](ccc3c2c1)-c1ccccc1C4=O.[Br-]`?
A: Activity [2]: 92%; Activity [4]: Non-Toxic; Survival [5]: 2 days; viability at 24 h, 12.5 ug/ml [25]: 17.7%; Activity [7]: 1.7 log10CFU/ml; Activity [12]: 20%; Activity [13]: 2 log10CFU/ml; Activity [14]: Non-Toxic; fold change (FC) [17]: 0.71; viability at 24 h, 50 ug/ml [19]: 69.8%; MIC [1]: 0.195 µg/mL; hemolysis at 12.5 ug/ml [20]: 0%; inhibition at 6.25 µg/mL [26]: 65.4%; viability at 24 h, 25 ug/ml [27]: 56.3%; Activity [23]: Non-Toxic

Q: What does the source list for `O=C1c2ccccc2-[n+]2ccc3c([nH]c4ccccc43)c21.[Cl-]` [FASCAPLYSIN CHLORIDE]?
A: Cmax [28]: 65.2 ng/mL; Activity [7]: 0 log10CFU/ml; Activity [13]: 2 log10CFU/ml; Cmax [29]: 414 ng/mL; Stability [30]: 94.9%; MIC [1]: 0.78 µg/mL

Q: For `O=C(O)c1ccc2[nH]c3c(C(=O)c4ccccc4Br)nccc3c2c1`, which MIC [1] is on record?
A: The MIC was greater than 200 µg/mL.

Q: With `O=C(c1ccccc1Cl)c1nccc2c1[nH]c1ccccc12` as the molecule, how does the MIC [1] read?
A: Its MIC is greater than 200 µg/mL.

Q: Which MIC [1] does the source give for `O=C(c1ccccc1Br)c1nccc2c1[nH]c1ccccc12` here?
A: The MIC was greater than 200 µg/mL.
